# Laboratory results published in US20120142766A1, “SUBSTITUTED 1,3-DIOXANES AND THEIR USES” (EVOLVA SA, priority 2007, published 2012).
# Test system: KKA^y mice
# Assay: KKAy mice on high fat diet, 14-day oral gavage BID
# Assay type: in vivo, mouse
# Experimental: 52 male KKA^y mice are obtained commercially (e.g., from Clea Japan) at an age of 6 weeks and put on a high fat diet upon arrival. Individual mice were housed in IVC Type II cages during both the acclimatization and the experimental phase. Both food (high fat diet) and water are supplied ad libitum.
# 1 animal per cage. […] Lights on at 06:00 a.m. Temperature: 21-25° C. Relative humidity target range: 55-60%.
# Mice were randomized into treatment groups according to their 4-h fasting blood glucose.
# 4 hours after the last administration, non-fasting conditions.
# Gamma irradiated high fat diet is commercially available (e.g., Research Diets, Inc. New Brunswick, N.J. (Product # D12266BI)).
# Blood is collected into heparin containing glass capillaries which are subsequently centrifuged in a “Haematokrit 24” centrifuge (Hettich) at 15′200×g for 10 minutes at room temperature to obtain the hematocrit value.
# The following serum parameters are determined on a COBAS INTEGRA 800 auto analyzer (Roche Diagnostics, Switzerland) using the reagents and protocols provided by the supplier.
# All measurements are made on Day 14 of administration, except for the food intake and body weight measurements that are made on Day 12.
# [1] = 53 mg/kg BID oral gavage, Day 12, mean ± S.E.M.
# [2] = 53 mg/kg BID oral gavage, Day 14, mean ± S.E.M.
# [3] = 14-day BID, enoic acid 53 mg/kg, rosiglitazone 5 mg/kg, Compounds 3 and 13 dose not stated
smiles,measurement,setting,value
"O=C(O)CC/C=C\C[C@@H]1CO[C@H](c2ccccc2Cl)O[C@@H]1c1ccccc1O [Compound C, (Z)-6-((2S,4S,5R)-2-(2-chlorophenyl)-4-(2-hydroxyphenyl)-1,3-dioxan-5-yl)hex-4-enoic acid]",Body Weight,[1],45.4 ± 1.0 g
same,Food Intake,[1],5.0 ± 0.6 g/day
same,ALP,[2],21.5 ± 1.6 dU/L
same,ALT,[2],5.1 ± 0.6 dU/L
same,AST,[2],7.7 ± 1.0 dU/L
same,FFA,[2],1.7 ± 0.3 mM
same,Fructosamine,[2],0.41 ± 0.03 mM
same,HDL,[2],3.1 ± 0.2 mM
same,HbA1C,[2],7.8 ± 0.3 %
same,Heart weight,[2],208.5 ± 7.6 mg
same,Hematocrit,[2],40.1 ± 1.6%
same,Insulin,[2],39.1 ± 8.8 µg/L
same,Serum Glucose,[2],31.9 ± 3.6 mM
same,TG,[2],2.0 ± 0.3 mM
same,Total Cholesterol,[2],3.6 ± 0.3 mM
same,Body weight (in words),[3],do not alter body weight
same,Circulating glucose levels (in words),[3],decreased
same,FFA (in words),[3],decreases the FFA
same,HbA1c levels (in words),[3],decreased
same,Heart weight (in words),[3],no effect on heart weight
